# In patent US20230226099A1, “INHALABLE FORMULATION” (AALTO UNIVERSITY FOUNDATION SR, priority 2020, published 2023):
# Assays:
# Pseudomonas aeruginosa = experiment: Antibiotic resistance profile of strains; type: cell-based
# [1] = test system: MDR-Acinetobacter baumannii; experiment: Antibiotic resistance profile of strain; type: cell-based; conditions: strain 5542
# [2] = test system: Pseudomonas aeruginosa PAO1; experiment: Coadministration with antibiotics, development of resistance (MIC over days); type: cell-based
# Excerpt: MIC values were categorized in three groups according to the Clinical and Laboratory Standards Institute: susceptible, intermediate susceptible and resistant.
# [3] = test system: lipopolysaccharides of P. aeruginosa, strain PA10; experiment: Analytical ultracentrifuge sedimentation velocity analysis of interaction with LPS; type: binding, Pseudomonas aeruginosa; conditions: 135 μM P[5]a and 35 μM LPS, UV absorbance at 305 nm
# Method: A clear initial peak of unbound P[5]a can be observer at low molecular weight (2260 Da), followed by a long and polydisperse collection of peaks, ranging from low molecular weight (S), to very high molecular weight (60.000 kDa) See Example 2.
# The interaction of P[5]a with lipopolysaccharides of P. aeruginosa, strain PA10 was measured using AUC.
# Analytical ultracentrifugation (AUC) is based on sedimentation of colloidal particles in a centrifugal field. During centrifugation particles move toward the bot-tom of the measuring cell. This movement leads to redistribution of particles along the measuring cell, which in turn can be expressed as a change in concentration along the measuring cell. The absorbance detector was used to follow the changes caused by centrifugation (absorbance is proportional to concentration). In simple words, in AUC the inventors measure how concentration changes during centrifugation, so they collect concentration profiles. Interaction between particles can be measured as a result of changes in the sedimentation profiles. […]
# The spectra of both P[5]a and LPS from P. aeruginosa were first analysed separately (see FIGS. 11a and b). […] Because only the sedimentation of P[5]a was detected at 305 nm, the inventors were certain that any changes observed in the sedimentation profile, come from interactions between P[5]a and other particles. […]
# [4] = test system: MDR resistant clinical isolates; experiment: Coadministration with antibiotics in MDR resistant clinical isolates; type: cell-based; conditions: Amikacin, Cefepime, Ceftazidime and Meropenem
# [5] = Lung neutrophil infiltration and inflammation score after i.v. or i.n. administration; type: in vivo; conditions: BALB/c mice, different dosages, 24 hours
# Excerpt: Two different administration methods were use, intravenously (i.v.) or intranasally (i.n.). Pathological changes were graded according to severity (P=Present; 1=Minimal; 2=Mild; 3=Moderate).
compound,measurement,setting,value
NCC[C@H](O)C(=O)N[C@@H]1C[C@H](N)[C@@H](O[C@H]2O[C@H](CN)[C@@H](O)[C@H](O)[C@H]2O)[C@H](O)[C@H]1O[C@H]1O[C@H](CO)[C@@H](O)[C@H](N)[C@H]1O [Amikacin],Antibiotic resistance (category),Pseudomonas aeruginosa; strain 2798 (ATCC 2798),Susceptible
same,Antibiotic resistance (value),Pseudomonas aeruginosa; strain 5539,"Susceptible to Amikacin 8 ug, intermediate to Cefepime 8 ug,"
same,Antibiotic resistance (value),"Pseudomonas aeruginosa; strain 5542, MDR","MDR Intermediate susceptible to amikacin 16 ug, resistant to"
same,Antibiotic resistance (value),"Pseudomonas aeruginosa; strain 5550, MDR",MDR Intermediate susceptible to amikacin 32 ug
same,Antibiotic resistance (value),"Pseudomonas aeruginosa; strain 5834, MDR","MDR Intermediate susceptible to amikacin 16 ug, resistant to"
same,Antibiotic resistance (category),[1],"Resistant to Amikacin, Amoxicillin-clavulanate, Ampicillin,"
CC1(C)S[C@@H]2[C@H](NC(=O)[C@H](N)c3ccccc3)C(=O)N2[C@H]1C(=O)O [Ampicillin],Antibiotic resistance (category),[1],"Resistant to Amikacin, Amoxicillin-clavulanate, Ampicillin,"
CC[C@H]1OC(=O)[C@H](C)[C@@H](O[C@H]2C[C@@](C)(OC)[C@@H](O)[C@H](C)O2)[C@H](C)[C@@H](O[C@@H]2O[C@H](C)C[C@H](N(C)C)[C@H]2O)[C@](C)(O)C[C@@H](C)CN(C)[C@H](C)[C@@H](O)[C@]1(C)O [Azithromycin],Antibiotic resistance (category),[1],"Resistant to Amikacin, Amoxicillin-clavulanate, Ampicillin,"
C[C@H]1[C@H](NC(=O)/C(=N\OC(C)(C)C(=O)O)c2csc(N)n2)C(=O)N1S(=O)(=O)O [Aztreonam],Antibiotic resistance (category),Pseudomonas aeruginosa; strain 2798 (ATCC 2798),Intermediate susceptible
CC1=C(C(=O)O)N2C(=O)[C@@H](NC(=O)[C@H](N)c3ccccc3)[C@H]2SC1 [Cefalexin],Antibiotic resistance (category),[1],"Resistant to Amikacin, Amoxicillin-clavulanate, Ampicillin,"
CO/N=C(\C(=O)N[C@@H]1C(=O)N2C(C(=O)[O-])=C(C[N+]3(C)CCCC3)CS[C@H]12)c1csc(N)n1 [Cefepime],MIC,"[2]; Pseudomonas aeruginosa, 96 h, PAO1, after four days, highest concentration of antibiotic included",128 µg/mL
CC(C)(O/N=C(\C(=O)N[C@@H]1C(=O)N2C(C(=O)[O-])=C(C[n+]3ccccc3)CS[C@H]12)c1csc(N)n1)C(=O)O [Ceftazidime],Antibiotic resistance (value),Pseudomonas aeruginosa; strain 5539,8 µg
same,Antibiotic resistance (value),"Pseudomonas aeruginosa; strain 5542, MDR",32 µg
same,Antibiotic resistance (value),"Pseudomonas aeruginosa; strain 5827, MDR",64 µg
same,Antibiotic resistance (value),"Pseudomonas aeruginosa; strain 5832, MDR",16 µg
same,Antibiotic resistance (value),"Pseudomonas aeruginosa; strain 5834, MDR","cefepime 64 ug, ceftazidime 64 ug and meropenem 64 ug"
C[C@@H](O)[C@H]1C(=O)N2C(C(=O)O)=C(S[C@@H]3CN[C@H](C(=O)Nc4cccc(C(=O)O)c4)C3)[C@H](C)[C@H]12 [Ertapenem],Antibiotic resistance (category),[1],"Resistant to Amikacin, Amoxicillin-clavulanate, Ampicillin,"
C[C@@H](O)[C@H]1C(=O)N2C(C(=O)O)=C(S[C@@H]3CN[C@H](C(=O)N(C)C)C3)[C@H](C)[C@H]12 [Meropenem],Antibiotic resistance (value),Pseudomonas aeruginosa; strain 5539,8 µg
same,Antibiotic resistance (value),"Pseudomonas aeruginosa; strain 5542, MDR",8 µg
same,Antibiotic resistance (value),"Pseudomonas aeruginosa; strain 5827, MDR",16 µg
same,Antibiotic resistance (value),"Pseudomonas aeruginosa; strain 5832, MDR",8 µg
same,Antibiotic resistance (value),"Pseudomonas aeruginosa; strain 5834, MDR","cefepime 64 ug, ceftazidime 64 ug and meropenem 64 ug"
same,Antibiotic resistance (category),[1],"Resistant to Amikacin, Amoxicillin-clavulanate, Ampicillin,"
"C[N+](C)(C)CCOc1cc2c(OCC[N+](C)(C)C)cc1Cc1cc(OCC[N+](C)(C)C)c(cc1OCC[N+](C)(C)C)Cc1cc(OCC[N+](C)(C)C)c(cc1OCC[N+](C)(C)C)Cc1cc(OCC[N+](C)(C)C)c(cc1OCC[N+](C)(C)C)Cc1cc(OCC[N+](C)(C)C)c(cc1OCC[N+](C)(C)C)C2.[Br-].[Br-].[Br-].[Br-].[Br-].[Br-].[Br-].[Br-].[Br-].[Br-] [P[5]a, 4,9,14,19,24,26,28,30,32,34-Deca[2-(trimethylaminio)ethoxy]hexacyclo[21.2.2.2^3,6.2^8,11.2^13,16.2^18,21]pentatriaconta1(25),3,5,8,10, 13,15,18,20,23,26,28,30,32,34-pentadecaene 10bromide]",interaction with LPS,[3],strong interaction
same,penetration and efficacy of coadministered antibiotics,[4],enhances the penetration and efficacy
same,penetration of coadministered antibiotics,[2]; PAO1,enhances the penetration
same,development of resistance by the pathogen to the coadministered antibiotic,"[2]; coadministration with Aztreonam, Cefepime, Meropenem and Tobramycin, PAO1",greatly slowed
same,tolerability (lung neutrophil infiltration and inflammation score),[5],good tolerability
Cc1cc(NS(=O)(=O)c2ccc(N)cc2)no1 [Sulfamethoxazole],Antibiotic resistance (category),[1],"Resistant to Amikacin, Amoxicillin-clavulanate, Ampicillin,"
CN(C)c1cc(NC(=O)CNC(C)(C)C)c(O)c2c1C[C@H]1C[C@H]3[C@H](N(C)C)C(O)=C(C(N)=O)C(=O)[C@@]3(O)C(O)=C1C2=O [Tigecycline],Antibiotic resistance (category),[1],"Resistant to Amikacin, Amoxicillin-clavulanate, Ampicillin,"
NC[C@H]1O[C@H](O[C@H]2[C@H](O)[C@@H](O[C@H]3O[C@H](CO)[C@@H](O)[C@H](N)[C@H]3O)[C@H](N)C[C@@H]2N)[C@H](N)C[C@@H]1O [Tobramycin],Antibiotic resistance (category),Pseudomonas aeruginosa; strain 5539,resistant
same,Antibiotic resistance (category),[1],"Resistant to Amikacin, Amoxicillin-clavulanate, Ampicillin,"
CO/N=C(\C(=O)N[C@@H]1C(=O)N2C(C(=O)O)=C(COC(N)=O)CS[C@H]12)c1ccco1 [cefurixome],Antibiotic resistance (category),Pseudomonas aeruginosa; strain 5539,resistant
O=C(O)c1cn(C2CC2)c2cc(N3CCNCC3)c(F)cc2c1=O [ciprofloxacin],Antibiotic resistance (category),Pseudomonas aeruginosa; strain 5539,resistant
same,Antibiotic resistance (category),"Pseudomonas aeruginosa; strain 5832, MDR",resistant
Amoxicillin-clavulanate,Antibiotic resistance (category),[1],"Resistant to Amikacin, Amoxicillin-clavulanate, Ampicillin,"
Colistin,Antibiotic resistance (category),Pseudomonas aeruginosa; strain 2798 (ATCC 2798),Susceptible
Piperacillin-tazobactam,Antibiotic resistance (category),Pseudomonas aeruginosa; strain 5539,resistant
same,Antibiotic resistance (category),[1],"Resistant to Amikacin, Amoxicillin-clavulanate, Ampicillin,"
